From patent US6566363B2, “Pyrazole-thiazole compounds, pharmaceutical compositions containing them” (Agouron Pharmaceuticals, Inc., priority 2000, dated 2003)
Structures can show the parent of a compound that is named as a salt.

Legend:
CDK4/cyclin D3 = target: T1, CDK4/cyclin D3 (Homo sapiens, UniProt P11802); assay: Inhibition of CDK4/Cyclin D retinoblastoma kinase activity; type: biochemical; conditions: for Ki: apparent Ki, Rb fragment substrate, 25 μM ATP
T1 construct: made in house; host or cells: insect cells co-infected with baculovirus expression vectors
Experimental: (§1) Cyclin-dependent kinase activity was measured by quantifying the enzyme-catalyzed, time-dependent incorporation of radioactive phosphate from [^32P]ATP or [^33P]ATP into a protein substrate. […] Reactions were initiated with enzyme, incubated at 30° C., and terminated after 20 minutes by the addition of ethylenediaminetetraacetic acid (EDTA) to 250 mM. […] Radioactivity was quantified by exposing the dried membranes to a phosphorimager.
(§2) Apparent Ki values were measured by assaying enzyme activity in the presence of different inhibitor compound concentrations and subtracting the background radioactivity measured in the absence of enzyme.
Phosphorylated Rb substrate was captured by microfiltration on a nitrocellulose membrane and quantified using a phosphorimager as described above. For measurement of tight-binding inhibitors, the enzyme complex concentration was lowered to 5 nM, and the assay duration was extended to 60 minutes, during which the time-dependence of product formation was linear.

CDK2/cyclin A = target: T2, CDK2/cyclin A (Homo sapiens, UniProt P24941); assay: Inhibition of CDK2/Cyclin A retinoblastoma kinase activity; type: biochemical; conditions: for Ki: apparent Ki, Rb fragment substrate, 25 μM ATP
T2 construct: made in house; host or cells: CDK2: insect cells (baculovirus); cyclin A: E. coli, then limited proteolysis
Experimental: as §1, §2
A complex of CDK2 and proteolyzed cyclin A was prepared and purified by gel filtration. […] Ki values were measured as described above.

HCT 116 cell line = assay: Inhibition of cell growth, MTT tetrazolium salt assay; type: cell-based
Experimental: Inhibition of cell growth was measured using the tetrazolium salt assay, which is based on the ability of viable cells to reduce 3-(4,5-dimethylthiazol-2-yl)-2,5-[2H]-diphenyltetrazolium bromide (MTT) to formazan (Mossman, Journal of Immunological Methods, vol. 65 (1983), pp. 55-58). The water-insoluble purple formazan product was then detected spectrophotometrically. The HCT 116 cell line was grown in 96-well plates. Cells were plated in the appropriate medium at a volume of 135 μl/well in McCoy's 5A Medium. Plates were incubated for four hours before addition of inhibitor compounds. Different concentrations of inhibitor compounds were added in 0.5% (v/v) dimethylsulfoxide (15 μL/well), and cells were incubated at 37° C. (5% CO2) for four to six days (depending on cell type). At the end of the incubation, MTT was added to a final concentration of 0.2 mg/mL, and cells were incubated for 4 hours more at 37° C. After centrifugation of the plates and removal of medium, the absorbence of the formazan (solubilized in dimethylsulfoxide) was measured at 540 nm. The concentration of inhibitor compound causing 50% inhibition of growth was determined from the linear portion of a semi-log plot of inhibitor concentration versus percentage inhibition. All results were compared to control cells treated only with 0.5% (v/v) dimethylsulfoxide.

T1 sequence (P11802 whole entry, the tested form may be a part): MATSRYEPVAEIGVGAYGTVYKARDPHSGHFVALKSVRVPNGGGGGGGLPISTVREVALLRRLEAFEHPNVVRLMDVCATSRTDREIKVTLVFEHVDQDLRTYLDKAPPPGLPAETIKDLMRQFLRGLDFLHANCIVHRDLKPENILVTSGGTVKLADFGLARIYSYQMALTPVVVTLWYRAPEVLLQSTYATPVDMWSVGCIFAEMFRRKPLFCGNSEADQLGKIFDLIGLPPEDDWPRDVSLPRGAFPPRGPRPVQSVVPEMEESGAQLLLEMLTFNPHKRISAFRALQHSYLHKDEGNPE
T1 sequence (P30281 whole entry partner, the tested form may be a part): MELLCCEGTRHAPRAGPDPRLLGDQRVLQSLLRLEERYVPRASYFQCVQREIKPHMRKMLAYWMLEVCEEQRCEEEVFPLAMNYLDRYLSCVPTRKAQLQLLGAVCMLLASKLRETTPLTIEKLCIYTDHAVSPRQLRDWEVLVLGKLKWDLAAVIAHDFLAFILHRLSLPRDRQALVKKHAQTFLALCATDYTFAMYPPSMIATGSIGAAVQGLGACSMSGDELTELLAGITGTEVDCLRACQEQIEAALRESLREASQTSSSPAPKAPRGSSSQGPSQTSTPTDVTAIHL

Compound	Ki (CDK4/cyclin D3)	Ki (CDK2/cyclin A)	IC50 (HCT 116 cell line; Homo sapiens, 144 h, HCT 116 cells, MTT, four to six days, read-out: IC50 HCT116)	inhibition of HCT116 growth (entry in IC50 column) (HCT 116 cell line; @ 25 μm)	inhibition of CDK4/D3 (entry in Ki column) (CDK4/cyclin D3; @ 1 μm)	inhibition of CDK2/A (entry in Ki column) (CDK2/cyclin A; @ 1 μm)
COc1ccc(Nc2nc3[nH]nc(-c4ccccc4)c3s2)cc1 [Compound 1, 5-(4-Methoxyphenylamino)-3-phenyl-1H-pyrazolo[4,5-d]thiazole Hydrobromic Acid Salt]	1600 nM	1000 nM	–	–	–	–
NS(=O)(=O)c1ccc(Nc2nc3[nH]nc(-c4ccccc4)c3s2)cc1 [Compound 2, 3-Phenyl-5-(4-sulfonamidophenylamino)-1H-pyrazolo[4,5-d]thiazole Hydrobromic Acid Salt]	390 nM	34 nM	> 25000 nM	–	–	–
NS(=O)(=O)c1ccc(Nc2nc3[nH]nc(-c4c(F)cccc4F)c3s2)cc1 [Compound 3, 3-(2,6-Difluorophenyl)-5-(4-sulfonamidophenylamino)-1H-pyrazolo [4,5-d]thiazole]	–	–	–	16% @ 25 μm	18% @ 1 μm	41% @ 1 μm
CN1CCN(c2ccc(Nc3nc4[nH]nc(-c5ccccc5)c4s3)cc2)CC1 [Compound 4, 5-[4-(4-Methyl-piperazin-1-yl)-phenylamino]-3-phenyl-1H-pyrazolo[4,5-d]thiazole Hydrobromic Acid Salt]	170 nM	1600 nM	–	–	–	–
